Reference: patent publication US20190314334A1, “COMPOUNDS FOR THE TREATMENT OF AUTOIMMUNE DISEASES” (QUIMATRYX, S.L., priority 2016, published 2019)

Key:
[1] = test system: Concanavalin A (ConA)-induced hepatitis; assay: Concanavalin A (ConA)-induced hepatitis model of autoimmune hepatitis, plasma transaminase (GPT); assay type: in vivo, Male Balb/C mice; conditions: blood 8 hours after ConA, vehicle 1338 U/L
Description: Concanavalin A (ConA)-induced hepatitis is a cell-mediated immunoinflammatory condition that can be induced in mice by a single intravenous injection of ConA. It is typically employed as a model for autoimmune hepatitis. The disease is characterized by a marked increase in the plasma levels of transaminase (GPT) shortly (8-24 hours) after ConA challenge and simultaneous infiltration of the liver with neutrophils, macrophages and T cells followed by apoptosis and necrosis of the hepatocytes. The aim of the present example was to evaluate the effects of a compound of formula (I) (QTX125) on histological and clinical parameters in the model of autoimmune hepatitis induced by ConA. Male Balb/C mice 7-8 weeks old (Envigo, San Pietro al Natisone, Udine, Italy) were kept under standard laboratory conditions (non-specific pathogen free) with free access to food and water and were allowed to adapt at least one week to their environment before commencing the study. ConA (Sigma Chemical, St. Louis, Mo.), was dissolved in sterile phosphate-buffered saline (PBS) and was injected into the tail veins of the animals at the dose of 20 mg/Kg. Three groups of 10 mice were treated at −24 and −1 hours before ConA injection as described in the table below: [table] […] The depth of colour is itself determined by the concentration of analyte in the sample.

[2] = test system: PLP-induced EAE; assay: PLP-induced experimental autoimmune encephalomyelitis (EAE), clinical grading; assay type: in vivo, Female SJL mice
[3] = test system: experimental autoimmune encephalomyelitis induced by myelin oligodendrocyte glycoprotein (MOG); assay: MOG-induced experimental autoimmune encephalomyelitis (EAE), paralysis scores; assay type: in vivo, mice; conditions: variant of Example 2
Description: A variant of the animal model of Example 2 was tested. In particular, experimental autoimmune encephalomyelitis was induced by subcutaneous injection of myelin oligodendrocyte glycoprotein (MOG) instead of PLP.

For `O=C(NO)c1ccc(CNC(=O)c2[nH]c(-c3ccc(O)cc3)cc2-c2ccoc2)cc1` [QTX125], the “transaminase (GPT) plasma level (light emission)” value ([1]; 25 mg/Kg i.p. 24 and 1 hour before ConA (20 mg/Kg i.v.)) was 606 U/L, the “transaminase (GPT) plasma level (light emission)” value ([1]; 50 mg/Kg i.p. 24 and 1 hour before ConA (20 mg/Kg i.v.)) was 543 U/L and the “EAE clinical grading (mouse condition) with respect to vehicle” value ([2]; 60 mg/Kg i.p. daily for 35 consecutive days, day 7 to day 42 post immunization) was “substantial improvement of mouse condition”. The “EAE clinical grading (mouse condition) with respect to dexamethasone” value ([2]; 60 mg/Kg i.p. daily vs dexamethasone 0.3 mg/Kg, greater part of the treatment, particularly at the end) was “even ameliorated with respect to dexamethasone” and the “paralysis scores (EAE clinical grading)” value [3] was “reduced paralysis scores”.
